Experiments:
[1] = system: tonic convulsion induced by (+) bicuculline; experiment: Anti-bicuculline action (bicuculline-induced tonic convulsion); assay type: in vivo, mouse (male ddY); details: Mus musculus; oral, 1 hour before (+) bicuculline 0.6 mg/kg i.v.; tonic convulsion within 5 minutes
Method: The anti-bicuculline action test was carried out in accordance with the method described in Life Science, vol. 21, 1779 (1977).
Male ddY mice weighing 20-28 g, 7-14 animals per group, were used. One hour after the oral administration of the test compounds, (+) bicuculline was intravenously administered at the dosage of 0.6 mg/kg, and 50% effective concentration (ED50) was estimated by examining whether tonic convulsion within 5 minutes was caused or not.

[2] = target: benzodiazepine (BZP) receptors; experiment: Displacement ability for benzodiazepine (displacement of tritiated diazepam); assay type: binding, rat (male Wistar; details: displacement of tritiated diazepam (2 nM), rat cerebral cortex synaptosomes, 0° C., 20 minutes, pH 7.4; read-out: Affinity to BZP Receptors, Ki
Method: The experiment for specific affinity to benzodiazepine receptors was carried out in accordance with the method described in Life Science, vol. 20, 2101 (1977).
The crude cynaptosome fraction was isolated from the cerebral cortex of male Wistar rats aged 9-10 weeks, and was suspended in 50 mM Tris-hydrochloric acid buffer solution (pH 7.4) containing 120 mM sodium chloride and 5 mM potassium chloride. These suspensions were used for the experiment.
The test compounds in several different concentrations and tritiated diazepam (in final concentration of 2 nM) were added to the synaptosome suspensions, and the mixtures were incubated at 0° C. for 20 minutes. These suspensions were filtered with Whatman GF/B glassfiber filters. After the filters were washed with the above-mentioned buffer solution, the radioactivity left on the filters was measured with the use of a liquid scintillation counter.
Specific binding was determined by subtracting binding in the presence of 10^-6 M unlabelled diazepam from total binding.
According to the foregoing experimental method, the binding force to benzodiazepine receptors of the compound of the present invention is evaluated from its displacement ability for tritiated diazepam at its binding site, which is represented by Ki value (nM).

[3] = system: amnesia-induced mice (electroconvulsive shock); experiment: Action on experimental amnesia (ECS-induced amnesia, step-through passive avoidance); assay type: in vivo, mouse (male ddY); details: 2.5 mg/kg (i.p.) or more, 30 minutes before acquisition trial; retention test 24 hours after
Method: Twenty male ddY mice were used per group to investigate the action of the test compounds on learning and memory ability of amnesia-induced mice by observing a step-through passive avoidance reflex. Amnesia-induced animals were prepared by applying electroconvulsive shock (ECS) soon after the acquisition trial and the retention test was carried out 24 hours after the acquisition trial. Test compounds were administered intraperitoneally (i.p.) 30 minutes before the acquisition trial.

ddY mice = experiment: Acute toxicity; assay type: in vivo, mouse (male ddY); details: 5 days
Source text: Five male ddY mice were used per group.

With `Cc1cc2c(s1)CCCC1CC(=O)N(c3ccc(Cl)cc3)N=C21` (stereo not shown) [Example 1, 2-(4-chlorophenyl)-9-methyl-2,4,4a,5,6,7-hexahydro-3H-thieno[2',3':6,7]cyclohepta[1,2-c]pyridazin-3-one] as the compound, how does the ED50 [1] read?
Its ED50 is 8.1 mg/kg.

And the Ki [2]?
The Ki was 4.8 nM.

`COc1ccc(N2N=C3c4cc(C)sc4CCCC3CC2=O)cc1` (stereo not shown) [Example 4, 2-(4-methoxyphenyl)-9-methyl-2,4,4a,5,6,7-hexahydro-3H-thieno[2',3':6,7]cyclohepta[1,2-c]pyridazin-3-one] was tested. Which “latency time in the trial of the retention test” value [3] did it give?
Its value is “significantly prolonged the latency time”.

And the “survival, acute toxicity, intraperitoneal” value (ddY mice; 300 mg/kg i.p., five mice)?
The value was “all mice survived for 5 days”.

And the “survival, acute toxicity, oral” value (ddY mice; 1000 mg/kg oral)?
The value was “survived for 5 days”.

What about the Ki [2] of the same compound?
The Ki was 1.1 nM.

With `Cc1cc2c(s1)CCCc1cc(=O)n(-c3ccc(Cl)cc3)nc1-2` [Example 5, 2-(4-chlorophenyl)-2,5,6,7-tetrahydro-9-methyl-3H-thieno[2',3':6,7]cyclohepta[1,2-c]pyridazin-3-one] as the compound, how does the ED50 [1] read?
Its ED50 is 9.8 mg/kg.
